Measured values: patent US20240279174A1, “ANTIBIOTICS COMPRISING LPXH-TARGETING COMPOUNDS AND METHODS OF MAKING AND USING THE SAME” (Duke University, priority 2019, published 2024)
pIC50, pKi: −log10 of the molar value. Values after ≈ are worked out from the molar mass of the structure shown. Where two headings read alike, the source gives them in different places.

What was measured:
[1] = molecular target: T1, K. pneumoniae LpxH (KpLpxH) (Klebsiella pneumoniae subsp. pneumoniae (strain ATCC 700721 / MGH 78578), UniProt A6T5R0); assay: LpxE-coupled malachite green LpxH activity assay (KpLpxH inhibition); assay type: biochemical; details: for remaining activity at 0.1 µM / inhibition at 0.1 µM: 0.1 μM inhibitor; for remaining activity at 0.1 µM: normalized against KpLpxH activity in 10% DMSO, read-out: Percentage Activity of KpLpxH (vi/v0); for inhibition at 0.1 µM: read-out: Percentage Inhibition of KpLpxH; for pIC50: Table 5, read-out: IC50: Average
Method: Evaluation of LpxH inhibition by analogs: After completing the synthesis of sulfonyl piperazine compounds with various forms of linkers, the KpLpxH inhibition was biochemically characterized by these analogs at 0.1 μM using the nonradioactive, colorimetric malachite green assay that we had previously reported. […] Such an enhanced potency requires the presence of the hydroxamate group, as its substitution with a carboxylate group in compound 7 reduced the compound activity (vi/v0=30±6%).
The LpxE-coupled LpxH activity assay was conducted as described previously using the GB1-K. pneumoniae LpxH-His10 fusion protein. Briefly, two reaction mixtures were prepared. Mixture 1 contains 20 mM Tris-HCl (pH 8.0), 0.5 mg/mL BSA, 0.02% Triton X-100, 1 mM MnCl2, 1 mM DTT, 10% DMSO, and 200 µM substrate (UDP-DAGn), and mixture 2 is comprised of the same buffer, but instead of substrate, contains both LpxH (20 ng/ml) and 2× inhibitor. These mixtures were then pre-incubated at 37° C. for 10 min. To initiate the reaction, an equal volume of the LpxH mixture (mixture 2) was added to the substrate mixture (mixture 1) at 37° C. The final reaction solution contains 100 μM substrate, 10 ng/ml enzyme, and 1× inhibitor. At the desired reaction time points, an aliquot of 20 μL reaction mixture was removed and added to a well in 96-well half-area plate containing 5 mM EDTA (final concentration) to quench the LpxH reaction. Purified Aquifex aeolicus LpxE was then added to a final concentration of 5 μg/mL. The plate was incubated at 37° C. for 30 min followed by addition of formic acid to a final concentration of 3.75 M to quench the LpxE reaction. The malachite green reagent (Sigma Aldrich, catalog MAK307) was diluted 5-fold into the solutions, and the plate was incubated for 30 min at room temperature before the absorbance at 620 nm was measured. All measurements were done in triplicates, and standard error (S.E.) was calculated.

[2] = test system: K. pneumoniae (ATCC 10031); assay: MIC assay (broth microdilution), K. pneumoniae; assay type: cell-based; details: Klebsiella pneumoniae, ATCC10031
Method: (§1) The MIC assay protocol was adapted from the broth microdilution methods described by the National Committee for Clinical Laboratory Standards using 96-well plates as described previously. In brief, overnight bacterial cultures were diluted to an OD600 of 0.006 in cation-adjusted Mueller-Hinton medium containing 7% DMSO and incubated at 37° C. for 22 h in the presence of varying concentrations of inhibitors. Following overnight incubation, each well is treated with 10 μL of 3-(4,5-dimethylthiazol-2-yl)-2,5-diphenyltetrazolium bromide (MTT, 5 mg/mL) for 3 h. Finally, the culture is solubilized by addition of 2-propanol, and the results are read by taking the difference of the UV reading at both 570 and 690 nm. MIC values were reported as the lowest compound concentration that inhibited bacterial growth. The baseline for inhibited cell growth was determined to be <4× the average control reading due to the baseline optical density of the initial starting bacterial culture.

WT K. pneumoniae = details: cited from earlier work
[3] = test system: E. coli strains with a compromised outer membrane (yhjD*ΔkdtA) or with an efflux pump deletion (ΔtolC); details: cited from earlier work
[4] = molecular target: T1, K. pneumoniae LpxH (KpLpxH); details: previously reported value for 2; read-out: KI of KpLpxH inhibition (reported value); cited from earlier work
E. coli W3110 = assay: MIC assay (broth microdilution), E. coli; assay type: cell-based; details: Escherichia coli, Table 4
Method: as §1

[5] = K. pneumoniae (ATCC 10031), in vitro, read-out: MIC
[6] = Table 4, read-out: MIC - K. pneumoniae (ATCC 10031)

Row | MIC [2, 6] | pIC50 [1] | MIC (E. coli W3110) | Compound | other results
1 | 0.83 µg/mL (≈ 1.7 µM) | 6.98 |  | CC(=O)N1CCc2cc(S(=O)(=O)N3CCN(c4cc(Cl)cc(C(F)(F)F)c4)CC3)ccc21 [JH-LPH-33] | pKi [4]: 8.00; remaining activity at 0.1 µM [1]: 21%; inhibition at 0.1 µM [1]: 79%; MIC [2, 5]: 0.83 µg/mL (≈ 1.7 µM)
2 | 1.33 µg/mL (≈ 2.92 µM) | 7.49 |  | CC(=O)N1CCc2cc(S(=O)(=O)N3CCN(c4nccc(C(F)(F)F)n4)CC3)ccc21 [JH-LPH-93] | 
3 | 0.83 µg/mL (≈ 1.37 µM) | 8.70 |  | O=C(CCCCNC(=O)N1CCc2cc(S(=O)(=O)N3CCN(c4cc(C(F)(F)F)cc(Cl)n4)CC3)ccc21)NO [JH-LPH-96] | 
4 | 1 µg/mL (≈ 1.69 µM) | 9.64 | 16 µg/mL (≈ 27 µM) | O=C(CCCCCNC(=O)Nc1ccc(S(=O)(=O)N2CCN(c3cc(C(F)(F)F)cc(Cl)n3)CC2)cc1)NO [JH-LPH-104] | 
5 | 0.3 µg/mL (≈ 0.502 µM) |  | 2 µg/mL (≈ 3.35 µM) | CN(c1ccccc1C(=O)Nc1ccc(S(=O)(=O)N2CCN(c3cc(Cl)cc(Cl)c3)CC2)cc1)S(C)(=O)=O [JH-LPH-105] | 
6 |  |  | 1.7 µg/mL (≈ 2.58 µM) | CN(c1ccccc1C(=O)N1CCc2cc(S(=O)(=O)N3CCN(c4cc(C(F)(F)F)cc(Cl)n4)CC3)ccc21)S(C)(=O)=O [JH-LPH-106] | 
7 | 0.04 µg/mL (≈ 0.0633 µM) |  | 1 µg/mL (≈ 1.58 µM) | CN(c1ccccc1C(=O)Nc1ccc(S(=O)(=O)N2CCN(c3cc(C(F)(F)F)cc(Cl)n3)CC2)cc1)S(C)(=O)=O [JH-LPH-107] | 

Row | Compound | MIC [2, 6] | pIC50 [1] | MIC (E. coli W3110) | other results
8 | CC(=O)N1CCc2cc(S(=O)(=O)N3CCN(c4cccc(C(F)(F)F)c4)CC3)ccc21 [AZ1, reference compound] | > 64 µg/mL |  |  | remaining activity at 0.1 µM [1]: 78%; inhibition at 0.1 µM [1]: 22%; MIC [2, 5]: > 64 µg/mL; antibiotic activity (WT K. pneumoniae): weak antibiotic activity; antibiotic activity [3]: weak antibiotic activity
